Where two headings read alike, the source gives them in different places. Square brackets hold non-standard residues; d marks the D form. Peptide text beside a SMILES is read from it. * marks the point of attachment. Asp(3,3-(CH2)4) = N[C@H](C(=O)O)C1(C(=O)O)CCCC1; Leu(γ-Me)ol = CC(C)(C)C[C@@H](CO)N*; Hydrocinnamoyl = O=C(CCc1ccccc1)*; Tle = CC(C)(C)[C@H](N)C(=O)O; NMeV = CN[C@H](C(=O)O)C(C)C; Pyrrolidide = C1CCN(*)C1
Legend:
[1] = in vivo; cited from earlier work
HSV-2 = test: microbe, parasite or virus in culture; type: cell-based, HSV-2 (strain HG-52)
Protocol: BHK-21/C13 cells (ATCC CCL 10) are incubated for two days in 150 cm^2 T-flasks (1.5×10^6 cells/flask) with alpha-MEM medium (Gibco Canada Inc., Burlington, Ontario, Canada) supplemented with 8% (v/v) fetal bovine serum (FBS, Gibco Canada Inc.). The cells are trypsinized and then transferred to fresh media in a 24 well plate to give 2.5×10^5 cells in 750 μL of media per well. The cells are incubated at 37° C. for a period of 6 hours to allow them to adhere to the plate. Thereafter, the cells are washed once with 500 μL of alpha-MEM supplemented with 0.5% (v/v) FBS and then incubated with 750 μL of the same media (low serum) for 3 days. After this period of serum starvation, the low serum medium is removed and the cells are incubated in 500 μL of BBMT for 2 to 3 hours. [BBMT medium is described by P. Brazeau et al., Proc. Natl. Acad. Sci. USA, 79, 7909 (1982).] Thereafter, the cells are infected with HSV-2 (multiplicity of infection=0.02 PFU/cell) in 100 μL of BBMT medium. (Note: The HSV-2 used was strain HG-52, see Y. Langelier and G. Buttin, J. Gen. Virol., 57, 21 (1981); the virus was stored at -80° C.) Following 1 hour of virus adsorption at 37° C., the media is removed and the cells are washed with BBMT (3×250 μL). The cells in each well are incubated with or without (control) appropriate concentrations of the test agent dissolved in 200 μL of BBMT medium. After 29 hours of incubation at 37° C., the infected cells are harvested by first freezing the plate at -80° C., followed by thawing. The cells in each well are scraped off the surface of the well with the help of the melting ice fragments. After complete thawing, the cell suspensions are collected and each well is rinsed with 150 μL of BBMT medium. The viral sample (suspension plus washing) is sonicated gently for 4 minutes at 4° C. Cell debris are removed by centrifugation (1000 times gravity for 10 minutes at 4° C.). The supernatant is collected and stored at -80° C. until determination of viral titer.
Viral titration was performed by a modification of the colorimetric assay method of M. Langlois et al., Journal of Biological Standardization, 14, 201 (1986).
More specifically, in a similar manner as described above, BHK-21/C13 cells are trypsinized and transferred to fresh media in a 96 well microtiter plate to give 20,000 cells in 100 μL of media per well. The cells in the prepared plate are incubated at 37° C. for 2 hours. During that time, the viral sample is thawed and sonicated gently for 15 seconds, and log dilutions of the sample are prepared (1/5 sequential: 50 μL of the sample plus 200 μL of BBMT medium, sequential dilutions being done with a multichannel pipette.
On completion of the above 2 hour incubation of the BHK-21/C13 cells, the media is replaced with alpha-MEM medium supplemented with 3% (v/v) FBS. The cells are now ready to be infected with the various sample dilutions of virus. Aliquots (50 μL) of the various dilutions are transferred into the appropriate wells of the plate. The resulting infected cells are incubated for 2 days at 37° C. Then 50 μL of a 0.15% (v/v) solution of neutral red dye in Hank's Balanced Salt Solution (pH 7.3, Gibco Canada Inc.) is added to each well. The prepared plate is incubated for 45 minutes at 37° C. Medium from each well is then aspirated and the cells are washed once with 200 μL of Hank's Balanced Salt Solution. After the wash, the dye is released from the cells by the addition of 100 μL of a 1:1 mixture of 0.1M Sorensen's citrate buffer (pH 4.2) and ethanol. [Sorensen's citrate buffer is prepared as follows: Firstly, a 0.1M disodium citrate solution is prepared by dissolving citric acid monohydrate (21 g) in 1N aqueous NaOH (200 mL) and adding sufficient filtered H2 O to make 1 L. Secondly, the 0.1M disodium citrate solution (61.2 mL) is mixed with 0.1N aqueous HCl (38.8 mL) and the pH of the resulting solution is adjusted to 4.2 if necessary.] […]

| Structure (SMILES) | side effects [1] | IC50 (HSV-2; Human alphaherpesvirus 2, BHK21 (C13), 29 h, agent alone, HSV-2 in BHK-21/C13 cells, 29 hours incubation, read-out: IC50, concentration causing 50% inhibition of virus replication) [nM] | IC50 (HSV-2; Human alphaherpesvirus 2, BHK21 (C13), +20 μM of peptide, HSV-2 in BHK-21/C13 cells, read-out: IC50 of acyclovir) [nM] | IC50 (HSV-2; Human alphaherpesvirus 2, BHK21 (C13), +30 μM of peptide, HSV-2 in BHK-21/C13 cells, read-out: IC50 of acyclovir) [nM] | IC50 (HSV-2; Human alphaherpesvirus 2, BHK21 (C13), +40 μM of peptide, HSV-2 in BHK-21/C13 cells, read-out: IC50 of acyclovir) [nM] | IC50 (HSV-2; Human alphaherpesvirus 2, BHK21 (C13), +50 μM of peptide, HSV-2 in BHK-21/C13 cells, read-out: IC50 of acyclovir) [nM] | IC50 (HSV-2; 29 h) [nM] |
| --- | --- | --- | --- | --- | --- | --- | --- |
| Nc1nc2c(ncn2COCCO)c(=O)[nH]1 [acyclovir, 9-[(2-hydroxyethoxy)methyl]guanine] | skin rashes and renal impairment | 1800 | 700 | 500 | 110 | 90 | – |
| CC(C)[C@@H](C(=O)N[C@H](C(=O)N[C@@H](CC(=O)N1CCCC1)C(=O)N[C@H](C(=O)N[C@H](CO)CC(C)(C)C)C1(C(=O)O)CCCC1)C(C)(C)C)N(C)C(=O)CCc1ccccc1 [peptide, PhCH2 CH2 CO--N-Me-Val-Tbg-Asp(pyrrolidino)-Asp(cyPn)-{(S)-NHCH[CH2 C(CH3)3 ]CH2 OH}] (Hydrocinnamoyl-[NMeV][Tle]D(Pyrrolidide)[Asp(3,3-(CH2)4)]-{Leu(γ-Me)ol}) | – | – | – | – | – | – | 80000 |
